Reference: US20190169691A1, “HERITABLE EPIGENETIC MODIFICATIONS AS MARKERS OF CHEMOTHERAPY EXPOSURE” (Washington State University, priority 2016, published 2019)
“And” between values parts separate entries of the source, which are not always exact repeats. Equal values may be shown once.

Test system: sperm
Test: Semen analysis: sperm number and seminal fluid parameters (CASA) after adolescent chemotherapy
Assay type: in vivo, human
Conditions: individual adult male osteosarcoma survivors, semen collected approximately ten years after chemotherapy at 14-20 years of age
Excerpt: The patients were 19-30 year-old male survivors of osteosarcoma recruited from the Seattle Children's Hospital in Seattle Wash. and four collaborating institutions (Children's Hospital of Pennsylvania, Philadelphia, Pa.; Miller Children's, Long Beach, Calif.; Children's Hospital, University of Minnesota, Minneapolis, Minn.; and Children's Hospital, Vanderbilt University, Nashville, Tenn.). These men had been treated for their disease with cisplatin-based chemotherapy regimens, including ifosfamide in some cases, when they were 14-20 years of age. Each patient was recruited by in-clinic or mail recruitment protocols. […]
Each patient and control was asked to provide a semen sample via home seminal fluid collection, which we used to allow for ease of subject participation since the sample can be obtained without the individual traveling to a laboratory. […] For sperm concentration (per ml), each participant's semen was diluted and assessed by CASA (Computer Assisted Sperm Analysis). […] Although sperm motility was not assessed (because it requires a fresh sample), count and morphology data nonetheless provide a great deal of information regarding spermatogenesis and abnormalities and both are associated with an increased risk of infertility. […]

N.N.[Cl][Pt][Cl] [Cisplatin, cisplatin] was tested, and the “Sperm # (Total Millions)” value was 100.2 Total Millions and 170.5 Total Millions and 178 Total Millions and 7.34 Total Millions and 21 Total Millions and 49 Total Millions and 55 Total Millions.
